Assay results taken from US5554615A, “Condensed pyrimidine derivative” (Eisai Co., Ltd., priority 1991, dated 1996).
Where two headings read alike, the source gives them in different places.

What was measured:
[1] = tested on: human lung cancer cell A549; test: Inhibitory activity against proliferation of oncocyte, A549 (MTT method); assay type: cell-based; conditions: 72 h
Protocol: (§1) Mouse leukemic cell P388, mouse colonic cancer cell Colon 38, human rhinopharyngeal cancer cell KB and human lung cancer cell A549 were used as the oncocytes. […] The microplate was placed in a carbon dioxide incubator containing 5% of CO2 and incubated at 37° C. for one day. The DMSO solution of the compound according to the present invention was diluted with the culture medium to prepare the serial dilutions of the compound. These dilutions were added to the above wells in a predetermined amount. The resulting plate was cultured at 37° C. for 3 days. […] The number of viable cells was determined according to the method of M. C.

[2] = tested on: human rhinopharyngeal cancer cell KB; test: Inhibitory activity against proliferation of oncocyte, KB (MTT method); assay type: cell-based; conditions: 72 h
Protocol: as §1

Mouse leukemic cell P388 = test: Inhibitory activity against proliferation of oncocyte, P388 (MTT method); assay type: cell-based; conditions: 72 h
Protocol: as §1

[3] = tested on: mouse colonic cancer cell Colon 38; test: Inhibitory activity against proliferation of oncocyte, Colon 38 (MTT method); assay type: cell-based; conditions: 72 h
Protocol: as §1

[4] = biological target: T1, dihydrofolate reductase (DHFR) (Mus musculus, UniProt P00375); test: Inhibitory activity against dihydrofolate reductase (DHFR); assay type: biochemical
T1 construct: DHFR was prepared from mouse leukemic cell P388; endogenous in cells; host or cells: P388 mouse leukemia cells (enzyme purified from the cells)
T1 sequence (P00375 1-187): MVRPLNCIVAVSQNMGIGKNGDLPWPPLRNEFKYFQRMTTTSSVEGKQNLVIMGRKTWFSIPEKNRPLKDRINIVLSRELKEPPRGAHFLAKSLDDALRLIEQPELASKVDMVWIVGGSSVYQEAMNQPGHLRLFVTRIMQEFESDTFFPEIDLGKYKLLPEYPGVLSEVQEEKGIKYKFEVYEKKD
Protocol: DHFR was prepared from mouse leukemic cell P388 according to the method of J. M. Whiteley et al. [see Arch.
A solution of purified DHFR was added to a solution comprising a potassium phosphate buffer solution (pH: 7.5, 75 mM), mercaptoethanol (7.5 mM) and NADPH (0.25 mM) to make up to a total amount of 0.57 mi. Each of the serial dilutions of the compound according to the present invention in an amount of 0.015 ml was added to the mixture prepared above. […] The obtained mixtures were kept at 37° C. for 5 minutes to conduct a reaction.

Mouse P388 leukemia = test: Activity against experimental tumor transplanted to mouse (P388 leukemia); assay type: in vivo; conditions: for MST / T/C: i.p., once a day for four days; for ratio of the maximum effective dose to the minimum one: tumor bearing mouse (CDF1)
Protocol: P388 cells (1×10^6) were inoculated into the abdominal cavity of a female CDF1 mouse of 7 weeks of age and a test drug was administered to the mouse once a day for four days from the next day.
Each test drug was administered intraperitoneally in a state dissolved or suspended in a 4% solution of NaHCO3 in physiological saline, while only a 4% solution of NaHCO3 in physiological saline was administered to a control group. Each control group was composed of ten mice, while each medicated group was composed of six mice. The antitumor activity was evaluated based on the T/C value calculated according to the following formula: [formula]
The measurement was conducted according to the method of R. I. Geran et al. (see Cancer Chemotherapy Reports (Part 3), 31 (1972)).

LX-1 = test: Inhibitory activity against proliferation of oncocyte, LX-1; assay type: cell-based; conditions: Homo sapiens, 72 h, Table 2-B, 3 days
[5] = tested on: dihydrofolate reductase (DHFR); conditions: in words; cited from earlier work
[6] = in words; cited from earlier work
[7] = read-out: 50% cell proliferation-inhibitory concentration (IC50), Table 2-A, 3 days
[8] = read-out: 50% cell proliferation-inhibitory concentration (IC50), Table 2-A, KB, 3 days
[9] = Table 2-B, 3 days, read-out: Proliferation-inhibitory activity IC50
[10] = Table 2-B, KB, 3 days, read-out: Proliferation-inhibitory activity IC50

Row | SMILES | IC50 [1, 7] [nM] | IC50 [2, 8] [nM] | IC50 (Mouse leukemic cell P388; [7]) [nM] | IC50 [3, 7] [nM] | IC50 [4] [nM] | MST (Mouse P388 leukemia; Table 3-A, 50.0 mg/kg) | T/C (Mouse P388 leukemia; Table 3-A, 50.0 mg/kg) [%] | IC50 [1, 9] [nM] | IC50 [2, 10] [nM] | IC50 (Mouse leukemic cell P388; [9]) [nM] | IC50 [3, 9] [nM] | T/C (Mouse P388 leukemia; Table 3-B, 0.78 mg/kg) [%] | T/C (Mouse P388 leukemia; Table 3-B, 3.13 mg/kg) [%] | also measured
1 | Nc1nc(N)c2c(ccn2CCCc2ccc(C(=O)N[C@@H](CCC(=O)O)C(=O)O)cc2)n1 [Ex. 2, N-[4-[3-(2,4-Diaminopyrrolo[3,2-d]pyrimidin-5-yl)propyl]benzoyl]-L-glutamat] | 19 | 9.8 | 12 | 40 | 97 | 14.8 ± 0.83 | 164 |  |  |  |  |  |  | MST (Mouse P388 leukemia; Table 3-A, 3.13 mg/kg): 13.3 ± 0.47; T/C (Mouse P388 leukemia; Table 3-A, 3.13 mg/kg): 148%; MST (Mouse P388 leukemia; Table 3-A, 6.25 mg/kg): 13.5 ± 0.50; T/C (Mouse P388 leukemia; Table 3-A, 6.25 mg/kg): 150%; MST (Mouse P388 leukemia; Table 3-A, 25.0 mg/kg): 14.0 ± 0.71; T/C (Mouse P388 leukemia; Table 3-A, 25.0 mg/kg): 156%; MST (Mouse P388 leukemia; Table 3-A, 100.0 mg/kg): 14.8 ± 0.83; T/C (Mouse P388 leukemia; Table 3-A, 100.0 mg/kg): 164%; MST (Mouse P388 leukemia; Table 3-A, 200.0 mg/kg): 16.0 ± 0.82; T/C (Mouse P388 leukemia; Table 3-A, 200.0 mg/kg): 178%; ratio of the maximum effective dose to the minimum one (Mouse P388 leukemia): about 60
2 | CC(CCn1ccc2nc(N)nc(N)c21)c1ccc(C(=O)N[C@@H](CCC(=O)O)C(=O)O)cc1 (stereo partly drawn) [Ex. 4, N-[4-[3-(2,4-Diaminopyrrolo[3,2-d]pyrimidin-5-yl)-1-methylpropyl]benzoyl]-L-glutamate] | 63 | 31 | 16 | 129 | 90 | 18.5 ± 1.12 | 185 |  |  |  |  |  |  | 
3 | CCC(CCn1ccc2nc(N)nc(N)c21)c1ccc(C(=O)N[C@@H](CCC(=O)O)C(=O)O)cc1 (stereo partly drawn) [Ex. 6, N-[4-[3-(2,4-Diaminopyrrolo[3,2-d]pyrimidin-5-yl)-1-ethylpropyl]benzoyl]-L-glutamate] | 940 | 30 | 12 | 340 | 1000 |  |  |  |  |  |  |  |  | 
4 | CCC(Cn1ccc2nc(N)nc(N)c21)c1ccc(C(=O)N[C@@H](CCC(=O)O)C(=O)O)cc1 (stereo partly drawn) [Ex. 9, N-[4-[2-(2,4-Diaminopyrrolo[3,2-d]pyrimidin-5-yl)-1-ethylethyl]benzoyl]-L-glutamate] | 100 | 32 | 17 | 39 | 30 | 15.0 ± 0.71 | 167 |  |  |  |  |  |  | MST (Mouse P388 leukemia; Table 3-A, 0.78 mg/kg): 16.3 ± 1.02; T/C (Mouse P388 leukemia; Table 3-A, 0.78 mg/kg): 181%; MST (Mouse P388 leukemia; Table 3-A, 3.13 mg/kg): 14.8 ± 0.83; T/C (Mouse P388 leukemia; Table 3-A, 3.13 mg/kg): 164%; ratio of the maximum effective dose to the minimum one (Mouse P388 leukemia): about 60
5 | Nc1nc(N)c2c(n1)CCC2CCc1ccc(C(=O)N[C@@H](CCC(=O)O)C(=O)O)cc1 (stereo partly drawn) [Ex. 103, N-{4-[2-(2,4-diamino-6,7-dihydro-5H-cyclopenta[d]pyrimidin-5-yl)ethyl]benzoyl}-L-glutamic] |  |  |  |  | 72 |  |  | 9.8 | 3.8 | 7.7 | 8.9 | 129 | 135 | T/C (Mouse P388 leukemia; Table 3-B, 50 mg/kg): 148%
6 | Nc1nc(N)c2c(n1)CCC2CCCc1ccc(C(=O)N[C@@H](CCC(=O)O)C(=O)O)s1 (stereo partly drawn) [Ex. 105, N-{5-[3-(2,4-diamino-6,7-dihydro-5H-cyclopenta[d]pyrimidin-5-yl)propyl]-2-thenoyl}-L-glutamic acid] |  |  |  |  | 4 |  |  | 2.4 | 0.92 | 1.8 | 0.87 | 176 | 151 | IC50 (LX-1): 0.67 nM; T/C (Mouse P388 leukemia; Table 3-B, 0.05 mg/kg): 126%; T/C (Mouse P388 leukemia; Table 3-B, 0.20 mg/kg): 151%
7 | Nc1nc(N)c2c(n1)CCC2CCCc1ccc(C(=O)N[C@@H](CCC(=O)O)C(=O)O)cc1 (some centres unmarked) [Ex. 108] |  |  |  |  |  |  |  | 9.3 | 1.6 | 2.7 | 4.1 | 150 | 170 | T/C (Mouse P388 leukemia; Table 3-B, 0.20 mg/kg): 133%
8 | CN(Cc1cnc2nc(N)nc(N)c2n1)c1ccc(C(=O)N[C@@H](CCC(=O)O)C(=O)O)cc1 [MTX, Methotrexate, reference compound] | 80 |  | 16 | 60 |  |  |  | 88 | 11 | 22 | 28 |  |  | inhibitory activity against dihydrofolate reductase (DHFR) [5]: high inhibitory activity; IC50 ([2]; read-out: 50% cell proliferation-inhibitory concentration (IC50)): 20 nM; potent adverse effects [6]: bone marrow suppression and degradation of the intestinal epithelium
